Among the data in patent publication US20250213736A1, “SCISSION-ENHANCED NUCLEAR IMAGING AND TREATMENT” (The General Hospital Corporation, priority 2022, published 2025) are half-life values, retold here.

The nature of this data set: LCMS analysis of DOTA-TCO-NHS linker immolation after Tz treatment in PBS (pH 7.4). Type of data set: physicochemical. The following applies: PBS with tetrazine (Tz-amine) added; 100 μM DOTA linker treated with 10 mM Tz-amine, PBS pH 7.4, LCMS; read-out: kinetics of linker immolation T1/2. The method, then: FIG. 6A contains line plots showing LCMS analysis of DOTA-TCO-NHS with varying ratios of HK-Tz added in PBS (pH 7.4). DOTA-TCO-NHS was synthesized as described in FIG. 3C, Characterized by NMR and then subjected to Tz treatment. Aliquots of 100 μM DOTA linker were treated with 10 mM Tz-amine and analyzed by LCMS after 30 min and 3 hours to determine the percentage of intact linker remaining. Shown are the kinetics of linker immolation (T1/2 12 min).

Turning to `CN(CC(=O)NCCCNC(=O)CCOCCOCCOCCOCCC(=O)ON1C(=O)CCC1=O)C(=O)OC1/C=C/C(OC(=O)N(C)CC(=O)NCCCNC(=O)CN2CCN(CC(=O)O)CCN(CC(=O)O)CCN(CC(=O)O)CC2)CCCC1` (stereo not shown) [DOTA-TCO-NHS], the half-life at 100 μM amounted to 12 min.
